Data as given in US20100203012A1, “IAP BIR DOMAIN BINDING COMPOUNDS” (Aegera Therapeutics, Inc., priority 2007, published 2010).

Columns and labels:
SKOV3 cells = experiment: Cytotoxicity assay (MTT) on SKOV3 cells; type: cell-based; conditions: Homo sapiens, SK-OV-3, 72 hours, single agent
Procedure: (§1) SKOV3 (ovarian) and HCT-116 (colon) cancer cells were cultured in McCoy's 5A media supplemented with 10% FBS and 100 units/mL of Penicillin and Streptomycin.
(§2) Cytotoxicity assays were performed on various cell lines including SKOV3 and HCT-116 cells. Cells were seeded in 96 well plates at a respective density of 2000 and 5000 cells per well and incubated at 37° C. in presence of 5% CO2 for 24 hours. Selected compounds were diluted into the media at various concentrations ranging from 0.01 nM up to 100 nM. Diluted compounds were added onto the SKOV3 cells. HCT-116 cells were co-treated with Trail receptor monoclonal antibody agonist (HGS-ETR^1, 40 ng/mL). After 72 hours, cellular viability was evaluated by MTT conversion. A solution of 3-(4,5-dimethylthiazol-2-yl)-2,5-diphenyltetrazolium bromide (MTT) was added onto cells for a period of 1 to 4 hours. Media was removed and replaced with isopropanol. Conversion of MTT by viable cells was detected by absorbance at 570 nm. The percentage of viability was expressed in percentage of the signal obtained with non treated cells.

HCT116 cells = experiment: Cytotoxicity assay (MTT) on HCT-116 cells co-treated with HGS-ETR1; type: cell-based; conditions: Homo sapiens, co-treated with HGS-ETR1 40 ng/mL, 72 hours
Procedure: as §1, §2

[1] = target: T1, XIAP BIR2-BIR3-ring (GST-linker BIR 2 BIR3Ring) (Homo sapiens, UniProt P98170); experiment: Fluorescence polarization competition assay, BIR2-BIR3-ring, probe P2; type: binding; conditions: ki derived from IC50, read-out: ki in the BIR2-BIR3-ring FP assay
T1 construct: made in house; host or cells: Escherichia coli DH5-alpha
Excerpt: GST-linker BIR 2 BIR3Ring: XIAP coding sequence from amino acids 93-497 cloned into PGex4T1 via BamH1 and XhoI. Amino acids 93-497 were amplified from full length XIAP in pGex4t3, using the primers: […] and GCTGCATGTGTGTCAGAGG, using standard PCR conditions. The PCR fragment was TA cloned into pCR-2.1 (invitrogen). Linker BIR 2 BIR 3Ring was subcloned into pGex4T1 by BamHI/XhoI digestion. The plasmid was transformed into E. coli DH5α for use in protein expression and purification.
For all assays, the fluorescence and fluorescence-polarization was evaluated using a Tecan Polarion instrument with the excitation filter set at 485 nm and the emission filter set at 535 nm. […] Upon establishing these conditions, the compounds potency (IC50) and selectivity, was assessed in the presence of a fix defined-amount of target protein and fluorescent probe and a 10 point serial dilution of the selected compounds. […] Auto-fluorescence for each compound was first assessed by performing a reading of the compound/BSA solution alone. Then 25 uL of the fluorescein probe (P1 or P2) diluted into 50 mM MES containing 0.05 mg/ml BSA were added and a reading to detect quenching of fluorescein signal done. Finally 25 uL/well of the target or control protein (GST-BIRs) diluted at the appropriate concentration in 50 mM MES containing 0.05 mg/ml BSA were added and the fluorescence polarization evaluated. […]

T1 sequence (P98170 93-497): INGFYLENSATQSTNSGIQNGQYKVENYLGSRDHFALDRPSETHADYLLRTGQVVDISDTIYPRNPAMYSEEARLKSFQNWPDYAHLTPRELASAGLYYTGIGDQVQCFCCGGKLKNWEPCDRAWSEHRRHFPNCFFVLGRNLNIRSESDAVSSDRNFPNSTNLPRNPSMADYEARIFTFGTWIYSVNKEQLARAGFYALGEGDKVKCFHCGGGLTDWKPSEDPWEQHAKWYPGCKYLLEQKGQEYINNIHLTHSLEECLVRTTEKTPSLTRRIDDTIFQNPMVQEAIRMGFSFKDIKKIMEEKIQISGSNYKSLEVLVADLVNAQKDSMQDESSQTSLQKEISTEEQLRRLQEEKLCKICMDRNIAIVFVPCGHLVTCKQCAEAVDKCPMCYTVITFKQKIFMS

| SMILES | EC50 (SKOV3 cells) [nM] | EC50 (HCT116 cells) [nM] | Ki [1] [nM] |
| --- | --- | --- | --- |
| CN[C@@H](C)C(=O)N[C@H](C(=O)N1CCN(C(=O)c2ccc(C(=O)N3CCN(C(=O)[C@@H](NC(=O)[C@H](C)NC)C(C)(C)C)[C@H](C(=O)N[C@@H]4CCCc5ccccc54)C3)cc2)C[C@H]1C(=O)N[C@@H]1CCCc2ccccc21)C(C)(C)C [Compound 1] | < 50 | < 50 |  |
| CN[C@@H](C)C(=O)N[C@H](C(=O)N1CCN(C(=O)CCCCCCCCC(=O)N2CCN(C(=O)[C@@H](NC(=O)[C@H](C)NC)C(C)(C)C)[C@H](C(=O)N[C@@H]3CCCc4ccccc43)C2)C[C@H]1C(=O)N[C@@H]1CCCc2ccccc21)C(C)(C)C [Compound 2] | < 50 | < 50 |  |
| CN[C@@H](C)C(=O)N[C@H](C(=O)N1CCN(C(=O)CNC(=O)c2ccc(-c3ccc(C(=O)NCC(=O)N4CCN(C(=O)[C@@H](NC(=O)[C@H](C)NC)C(C)(C)C)[C@H](C(=O)N[C@@H]5CCCc6ccccc65)C4)cc3)cc2)C[C@H]1C(=O)N[C@@H]1CCCc2ccccc21)C(C)(C)C [Compound 3] |  |  | < 100 |
